Values of other authors in patent publication EP0916677A1, “METHOD FOR SEARCHING FOR PEPTIDES AND PROCESS FOR PRODUCING COMPOUNDS” (YAMANOUCHI PHARMACEUTICAL CO., LTD., priority 1996, dated 1998).

Target: T1, trypsin (Bos taurus, UniProt P00760)
T1 sequence (P00760 24-246): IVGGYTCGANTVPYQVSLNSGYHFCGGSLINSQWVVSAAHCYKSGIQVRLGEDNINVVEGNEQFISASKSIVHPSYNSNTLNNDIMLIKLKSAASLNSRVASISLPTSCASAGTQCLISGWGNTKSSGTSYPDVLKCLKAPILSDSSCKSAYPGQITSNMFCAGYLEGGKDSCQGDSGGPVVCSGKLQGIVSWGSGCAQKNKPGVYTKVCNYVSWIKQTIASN
Conditions: known from Eichler et al., Biochemistry, 1993, 32, 11035

- trypsin inhibitory activity: high
Substance: Ac-TTKIFT-NH2 [TTKIFT, Ac-TTKIFT-NH2]
